Like-named read-outs stand apart in the source and are kept apart here.
Experiments:
[1] = test system: HUVEC cells; assay: CCK-8 cell viability: alleviation of proliferative toxicity of anti-tumor agents on HUVEC cells (Tables 7-1, 7-2); type: cell-based
Protocol: The cultured HUVEC cells were digested the suspended, counted, and seed into a 96-well plate with 5,000-10,000 cells per well. The wells are divided into the following groups: blank control group, anti-tumor agent group, anti-tumor agent+NO-NSAID group, anti-tumor agent solvent group, NO-NSAID control group. Wherein each well of each group contained a basic medium, and the final liquid volume contained in each well was about 100 μL. The grouping situation was as follows: • 1) Blank control group: no solution was added except normally replacing the medium; • 2) Anti-tumor agent group: added the anti-tumor agent solution (the final concentration was shown in Table 7-1 and Table 7-2, the solvent of the anti-tumor agent solution was DMSO); • 3) Anti-tumor agent+NO-NSAID group: added the anti-tumor agent solution and the NO-NSAID solution (the final concentrations of anti-tumor agent and NO-NSAID were shown in Table 7-1 and Table 7-2, and according to the solubility of NO-NSAID, the solvent of NO-NSAID solution was selected as ethanol or sterile water, and minor volume differences in each group were adjusted by added the corresponding solvent); • 4) Anti-tumor agent solvent group: an equal volume of DMSO as contained in the corresponding anti-tumor agent solution in Group 2) was added; • 5) NO-NSAID control group: the same volume and type of solvent (for example, ethanol or sterile water) corresponding to the NO-NSAID contained in group 3) was added.
The anti-tumor agent solvent group was not involved in data processing and was only used as a reference for evaluating experimental system error. The NO-NSAID solvent control group was used for data correction to eliminate the influence of the solvent on the results.
After culturing for 24-48 hours, the Cell Counting Kit-8 (CCK-8) detection kit (C0037, Shanghai Beyotime Biotechnology Co., Ltd., Beyotime Biotechnology) was used to determine the cell viability. This allows for the calculation of the proliferative toxicity of anti-tumor agent on cell and the mitigating effect of NO-NSAID on proliferative toxicity. The results were statistically analyzed and plotted using GraphPad Prism 6.0 software and t test.

[2] = test system: hand-foot syndrome induced by anti-tumor agents; assay: Prevention of hand-foot syndrome induced by anti-tumor agents in rats, NO-NSAID ointment on hind paws (Table 2-2); type: in vivo, SD rats; conditions: Rattus norvegicus, topical, read-out: Control rate; for responders at 1 %: ointment 1% wt; for responders at 5 %: ointment 5% wt; for responders at 3 %: ointment 3% wt
Text: A rat animal model was constructed, and the anti-tumor agents shown in Table 2-2 were respectively administered to 8-week-old female SD rats by daily oral gavage. […] Therefore, rats serve as an excellent animal model for simulating side effects (such as hand-foot syndrome) caused by anti-tumor agents.
After the rats (about 200 g) were fed and adapted for one week, they were divided into a NO-NSAID group and a control group, with 10 rats in each group, and a gavage administration test was conducted. The various anti-tumor agents were dissolve in a mixed solution of Cremophor EL:ethanol=1:1. The anti-tumor agent solution were diluted with PBS to the required concentration (about 3 times with PBS solution) before gavage administration. After gavage, an ointment containing NO-NSAID was applied to the hind paws of the rats, while the control group was applied with a blank ointment. After application, the rats were placed in a fixed cylinder for 4 hours. After 4 hours, the rats were released and the residual ointment was wiped off with clean water, then the rats were returned to the cage. The gavage frequency of inhibitors was shown in Table 2-2, and NO-NSAID was only applied once a day. The gavage and application operations were repeated daily until the end of the experiment.
Table 2-2 lists the animal experimental combinations of various anti-tumor agents and NO-NSAID ointments, as well as the corresponding experimental results (wherein the value in the control rate column=the hand-foot syndrome incidence rate in the blank group−the hand-foot syndrome incidence rate in the treatment group).

[3] = 120 h, Sorafenib 80 mg/kg once a day, Days 5
[4] = 432 h, Cabozantinib 50 mg/kg once a day, Days 18
[5] = 432 h, Lenvatinib 100 mg/kg twice a day, Days 18
[6] = 432 h, Nintedanib 110 mg/kg once a day, Days 18
[7] = 432 h, Regorafenib 90 mg/kg once a day, Days 18

SMILES: CC(=O)Oc1ccccc1C(=O)Oc1cccc(CO[N+](=O)[O-])c1 [Compound A2]
- NO-NSAID response rate % (average) ([1]; Lenvatinib (10 μM), NO-NSAID 1 μM): 24%
- NO-NSAID response rate % (average) ([1]; Lenvatinib (10 μM), NO-NSAID 100 μM): 34%
- NO-NSAID response rate % (average) ([1]; Lenvatinib (10 μM), NO-NSAID 500 μM): 31%
- NO-NSAID response rate % (average) ([1]; Olmutinib (10 μM), NO-NSAID 0.1 μM): 24%
- NO-NSAID response rate % (average) ([1]; Olmutinib (10 μM), NO-NSAID 1 μM): 24%
- NO-NSAID response rate % (average) ([1]; Olmutinib (10 μM), NO-NSAID 100 μM): 33%
- NO-NSAID response rate % (average) ([1]; Olmutinib (10 μM), NO-NSAID 500 μM): 23%
- NO-NSAID response rate % (average) ([1]; Regorafenib (5 μM), NO-NSAID 0.1 μM): 32%
- NO-NSAID response rate % (average) ([1]; Regorafenib (5 μM), NO-NSAID 1 μM): 30%
- NO-NSAID response rate % (average) ([1]; Regorafenib (5 μM), NO-NSAID 100 μM): 50%
- NO-NSAID response rate % (average) ([1]; Regorafenib (5 μM), NO-NSAID 500 μM): 36%
- NO-NSAID response rate % (average) ([1]; Selumetinib (5 μM), NO-NSAID 0.1 μM): 34%
- NO-NSAID response rate % (average) ([1]; Selumetinib (5 μM), NO-NSAID 1 μM): 48%
- NO-NSAID response rate % (average) ([1]; Selumetinib (5 μM), NO-NSAID 100 μM): 83%
- NO-NSAID response rate % (average) ([1]; Selumetinib (5 μM), NO-NSAID 500 μM): 30%
- NO-NSAID response rate % (average) ([1]; Sorafenib (5 μM), NO-NSAID 0.1 μM): 5%
- NO-NSAID response rate % (average) ([1]; Sorafenib (5 μM), NO-NSAID 1 μM): 20%
- NO-NSAID response rate % (average) ([1]; Sorafenib (5 μM), NO-NSAID 100 μM): 56%
- NO-NSAID response rate % (average) ([1]; Sorafenib (5 μM), NO-NSAID 500 μM): 17%
- NO-NSAID response rate % (average) ([1]; Sunitinib (5 μM), NO-NSAID 0.1 μM): 13%
- NO-NSAID response rate % (average) ([1]; Sunitinib (5 μM), NO-NSAID 1 μM): 7%
- NO-NSAID response rate % (average) ([1]; Sunitinib (5 μM), NO-NSAID 100 μM): 65%
- NO-NSAID response rate % (average) ([1]; Sunitinib (5 μM), NO-NSAID 500 μM): 2%
- responders at 1 % [2, 3]: 50%
- responders at 2 % ([2]; 120 h, Sorafenib 80 mg/kg once a day, ointment 2% wt, Days 5): 50%
- responders at 5 % [2, 3]: 66.7%
- responders at 10 % ([2]; 120 h, Sorafenib 80 mg/kg once a day, ointment 10% wt, Days 5): 80%
- responders at 3 % ([2]; 360 h, Apatinib 105 mg/kg once a day, Days 15): 50%
- responders at 3 % ([2]; 360 h, Encorafenib 80 mg/kg once a day, Days 15): 42.9%
- responders at 3 % ([2]; 360 h, Lapatinib 120 mg/kg twice a day, Days 15): 33.3%
- responders at 3 % ([2]; 360 h, Sunitinib 120 mg/kg once a day, Days 15): 42.9%
- responders at 3 % ([2]; 384 h, Fruquintinib 40 mg/kg once a day, Days 16): 71.4%
- responders at 3 % ([2]; 432 h, Anlotinib 20 mg/kg once a day, Days 18): 66.7%
- responders at 3 % ([2]; 432 h, Axitinib 50 mg/kg once a day, Days 18): 40%
- responders at 1 % [2, 4]: 28.6%
- responders at 2.5 % ([2]; 432 h, Cabozantinib 50 mg/kg once a day, ointment 2.50% wt, Days 18): 42.9%
- responders at 5 % [2, 4]: 66.7%
- responders at 1 % [2, 5]: 42.9%
- responders at 3 % [2, 5]: 42.9%
- responders at 5 % [2, 5]: 71.4%
- responders at 1 % [2, 6]: 33.3%
- responders at 3 % [2, 6]: 50%
- responders at 5 % [2, 6]: 66.7%
- responders at 1 % [2, 7]: 57.1%
- responders at 5 % [2, 7]: 66.7%
- responders at 3 % ([2]; 480 h, Erdafitinib 45 mg/kg once a day, Days 20): 71.4%
- responders at 3 % ([2]; 480 h, Olmutinib 100 mg/kg once a day, Days 20): 60%

Reference: patent publication US20250170090A1, “METHOD FOR PREVENTING OR TREATING DISEASE OR DISORDER ASSOCIATED WITH ANTINEOPLASTIC AGENT” (ONQUALITY PHARMACEUTICALS CHINA LTD., priority 2022, published 2025)
